pKi: −log10 of the molar value. Entries after “also recorded” stand apart in the source; their conditions may differ.
Tests used:
hERG potassium channel = hERG potassium channel (Homo sapiens (Human), UniProt Q12809); test: NIMH-PDSP broad-panel counter screening (binding)
[1] = Brain permeability in rats; format: in vivo; settings: male, Sprague-Dawley, brain/plasma, rat, IV 10 mg/kg, read-out: Brain/Plasma Ratio
Method: In Vivo PK and Brain Permeability Studies. Male Sprague-Dawley rats (n=3 per treatment group; […] Rats were randomly assigned to treatment groups. […] The rat was restrained manually at the designated time points (0.08, 0.25, 0.5, 1.0, 2.0, 4.0, 8.0, and 24 h post-dosing for IV; 0.25, 0.5, 1.0, 2.0, 4.0, 8.0, and 24 h post-dosing for PO). 100 μL of blood (yielding ˜50 μL of plasma) samples are taken from the animal's jugular vein and placed into micro K2EDTA tubes. Blood samples were placed on ice and centrifuged at 8000 rpm for 5 min at 4° C. to generate plasma sample within 0.5 h of collection. Brain samples were collected at 0.25 and 1 h post-dosing. All samples were stored at −20° C. The concentration of 12c in each sample was analyzed by Sundia MediTech Co., Ltd. The study and the related standard operating procedures were reviewed and approved by the Sundia Institutional Animal Care and Use Committee. The Sundia animal facility is approved with yearly inspection by the Shanghai Laboratory Animal Management Committee. All treatment assignments were blinded to investigators who performed PK assays and end point statistical analyses.

human GPR52 = human GPR52 (Homo sapiens (Human), UniProt Q9Y2T5); test: Glosensor cAMP assay in HEK293 cells transiently expressing human GPR52; format: cell-based; settings: relative to compound 4 as 100% and 0.5% DMSO as 0%, mean ± SEM, "—" not detected
Chain of human GPR52 (Q9Y2T5 whole entry): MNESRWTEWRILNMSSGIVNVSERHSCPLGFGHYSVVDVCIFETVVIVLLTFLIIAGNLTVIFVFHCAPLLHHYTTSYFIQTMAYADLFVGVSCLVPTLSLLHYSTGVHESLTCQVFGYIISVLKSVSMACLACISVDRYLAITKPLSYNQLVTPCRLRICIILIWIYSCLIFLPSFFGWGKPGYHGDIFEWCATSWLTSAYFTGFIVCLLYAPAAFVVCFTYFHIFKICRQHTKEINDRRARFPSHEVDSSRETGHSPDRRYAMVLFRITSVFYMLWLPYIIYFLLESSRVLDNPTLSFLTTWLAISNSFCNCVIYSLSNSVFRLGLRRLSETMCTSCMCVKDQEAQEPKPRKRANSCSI

GABAA = test: NIMH-PDSP broad-panel counter screening (binding); settings: mean percent inhibition of binding
[2] = tested on: HEK293 cells lacking GPR52; test: cAMP Glosensor control in HEK293 cells lacking GPR52 (empty vector); settings: HEK293 cells with empty vector, 0.1 nM-10 μM
5-HT2C = 5-HT2C (Homo sapiens (Human), UniProt P28335); test: NIMH-PDSP broad-panel counter screening (binding)
Chain of 5-HT2C (P28335 33-458, species assumed): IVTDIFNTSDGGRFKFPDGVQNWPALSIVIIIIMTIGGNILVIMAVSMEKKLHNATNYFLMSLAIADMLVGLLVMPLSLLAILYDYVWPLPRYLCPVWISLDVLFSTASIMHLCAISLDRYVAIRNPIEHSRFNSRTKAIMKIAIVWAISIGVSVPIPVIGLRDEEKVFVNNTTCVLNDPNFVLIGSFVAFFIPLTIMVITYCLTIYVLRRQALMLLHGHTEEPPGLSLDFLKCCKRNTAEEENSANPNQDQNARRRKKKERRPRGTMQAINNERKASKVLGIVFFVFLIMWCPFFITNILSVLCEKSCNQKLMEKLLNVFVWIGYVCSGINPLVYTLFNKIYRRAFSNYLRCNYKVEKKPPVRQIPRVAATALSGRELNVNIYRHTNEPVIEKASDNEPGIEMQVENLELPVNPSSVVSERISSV

C57/BL6 mice = test: Locomotor activity and amphetamine-induced hyperlocomotion in mice; settings: P<0.05 vs vehicle; for AMPH-induced horizontal activity, first 30 min after AMPH: AMPH 3 mg/kg IP
In vivo PK in rats = settings: rat; for AUC(0-inf): mean ± SEM
Method: In Vivo PK and Brain Permeability Studies. […] 100 μL of blood (yielding ˜50 μL of plasma) samples are taken from the animal's jugular vein and placed into micro K2EDTA tubes. Blood samples were placed on ice and centrifuged at 8000 rpm for 5 min at 4° C. to generate plasma sample within 0.5 h of collection. Brain samples were collected at 0.25 and 1 h post-dosing. All samples were stored at −20° C. […] The Sundia animal facility is approved with yearly inspection by the Shanghai Laboratory Animal Management Committee. All treatment assignments were blinded to investigators who performed PK assays and end point statistical analyses. […] The peak concentration (Cmax) was directly obtained by visual inspection of the plasma concentration-time profile. The elimination rate constant (λ) was obtained by the least-squares fitted terminal log-linear portion of the slope of the plasma concentration-time profile. […] The area under the plasma concentration-time curve from 0 to time t (AUC0-t) was evaluated using the linear trapezoidal rule and further extrapolated to infinity (AUC0-∞) according to the following equation: AUC0-∞=AUC0-t+Clast/λ. The pharmacokinetic parameters were presented as mean±SEM.

[3] = male, Sprague-Dawley, plasma, IV 10 mg/kg
[4] = male, Sprague-Dawley, plasma, PO 20 mg/kg

Chain of hERG potassium channel (Q12809 whole entry): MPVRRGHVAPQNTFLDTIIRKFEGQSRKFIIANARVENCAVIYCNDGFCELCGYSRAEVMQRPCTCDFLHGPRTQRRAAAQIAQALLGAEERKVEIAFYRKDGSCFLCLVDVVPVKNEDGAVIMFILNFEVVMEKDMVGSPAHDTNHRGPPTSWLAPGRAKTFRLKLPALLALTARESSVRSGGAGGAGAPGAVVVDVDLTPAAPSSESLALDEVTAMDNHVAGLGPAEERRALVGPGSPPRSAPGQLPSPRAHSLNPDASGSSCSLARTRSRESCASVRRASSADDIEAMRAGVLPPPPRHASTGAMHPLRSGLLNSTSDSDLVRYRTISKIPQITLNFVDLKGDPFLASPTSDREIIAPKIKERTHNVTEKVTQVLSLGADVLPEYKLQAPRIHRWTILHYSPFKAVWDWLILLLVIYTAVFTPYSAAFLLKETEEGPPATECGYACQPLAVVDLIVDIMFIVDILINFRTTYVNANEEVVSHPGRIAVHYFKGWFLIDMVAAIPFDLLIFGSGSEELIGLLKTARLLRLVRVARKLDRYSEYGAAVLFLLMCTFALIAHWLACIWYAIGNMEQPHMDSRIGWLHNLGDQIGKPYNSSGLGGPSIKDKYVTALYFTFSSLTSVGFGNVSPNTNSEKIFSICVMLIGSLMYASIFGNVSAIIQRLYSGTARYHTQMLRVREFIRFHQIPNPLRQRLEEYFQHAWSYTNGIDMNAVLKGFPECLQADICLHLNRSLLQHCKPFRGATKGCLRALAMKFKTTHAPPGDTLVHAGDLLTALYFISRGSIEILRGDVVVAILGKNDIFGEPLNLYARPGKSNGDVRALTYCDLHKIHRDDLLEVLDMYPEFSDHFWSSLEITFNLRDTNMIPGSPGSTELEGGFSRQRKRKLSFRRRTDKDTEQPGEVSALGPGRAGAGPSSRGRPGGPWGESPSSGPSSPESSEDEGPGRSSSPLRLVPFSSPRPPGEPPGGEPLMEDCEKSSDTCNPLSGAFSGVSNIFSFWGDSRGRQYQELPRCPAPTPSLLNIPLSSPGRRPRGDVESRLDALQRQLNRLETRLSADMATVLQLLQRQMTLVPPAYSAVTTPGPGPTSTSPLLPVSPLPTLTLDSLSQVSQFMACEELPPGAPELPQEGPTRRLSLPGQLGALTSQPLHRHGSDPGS

SMILES: O=C(NCCO)c1cccc2c1CCN2c1cc(Cc2cc(F)cc(C(F)(F)F)c2)ncn1 [Compound 12c, 1-(6-(3-Fluoro-5-(trifluoromethyl)benzyl)pyrimidin-4-yl)-N-(2-hydroxyethyl)indoline-4-carboxamide]
- hERG potassium channel binding activity (hERG potassium channel; 10 μM): did not show any
- % inhibition (10 μM) (hERG potassium channel; hERG, mean percent inhibition of binding): 11.04%
- Kp at […] ([1]; 0.25 h): 0.28
- Kp at 1 h ([1]; 1 h): 0.39
- Emax (human GPR52; HEK293, cAMP assay, read-out: Emax (%)): 136%
- Emax (%) (human GPR52; cAMP assay): 134%
- % inhibition (10 μM) (GABAA): 5.98%
- cAMP increase in cells lacking GPR52 [2]: no increase in cAMP; also recorded: did not increase cAMP
- pKi (5-HT2C): < 5.00
- AMPH-induced horizontal activity, first 30 min after AMPH (C57/BL6 mice; 3 mg/kg IP): suppressed AMPH-induced horizontal activity
- horizontal activity/30 min after compound injection (C57/BL6 mice; 3 mg/kg IP): suppressed horizontal activity
- AMPH-induced horizontal activity, first 30 min after AMPH (C57/BL6 mice; 10 mg/kg IP): suppressed AMPH-induced horizontal activity
- horizontal activity/30 min after compound injection (C57/BL6 mice; 10 mg/kg IP): suppressed horizontal activity
- Cmax (In vivo PK in rats; [3]): 6730 ng/mL
- clearance (In vivo PK in rats; [3]): 18.3 mL/min/kg
- AUC(0-inf) (In vivo PK in rats; [3]): 9030 ng·h/mL
- Vd (In vivo PK in rats; male, Sprague-Dawley, plasma, IV 10 mg/kg, read-out: Vss): 1.5 L/kg
- Cmax (In vivo PK in rats; [4]): 3410 ng/mL
- AUC(0-inf) (In vivo PK in rats; [4]): 13700 ng·h/mL
- bioavailability (In vivo PK in rats; male, Sprague-Dawley, plasma, oral, 20 mg/kg): 76%
- CL (In vivo PK in rats; IV 10 mg/kg): 18.3 ± 1.7 mL/min/kg
- CL (In vivo PK in rats; PO 20 mg/kg): 25 ± 5 mL/min/kg
- Vss (In vivo PK in rats; PO 20 mg/kg): 5.5 ± 1.16 L/kg
- F (%) (In vivo PK in rats; absolute oral bioavailability, PO 20 mg/kg vs IV 10 mg/kg): 76 ± 15%

Reference: patent publication US20240059655A1, “HETEROCYCLIC G-PROTEIN-COUPLED RECEPTOR 52 (GPR52) AGONISTS” (Board of Regents, The University of Texas System, priority 2020, published 2024)
